Among the data in ChEMBL document CHEMBL1141002, “Alpha-mercaptoketone based histone deacetylase inhibitors” (Bioorg Med Chem Lett, 2008) are EC50 and T/C values, retold here.

For orientation: EC50 means the concentration needed to bring the measured effect to its halfway point. One may read the T/C as the ratio of treated to control.

The target of experiment [1] is Histone deacetylase. Description: Inhibition of histone deacetylase in human HeLa cells assessed as induction of histone H3 hyperacetylation. The class given is cell-based.
Experiment [2] concerns HCT-116. Description: Cytotoxicity against human HCT116 cells. It is filed as functional, cell-based.
For experiment [3], the system named is HCT-116. Description: Antitumor activity against human HCT116 cells xenografted in nude mouse at 50 mg/kg, po administered once a day for 14 days relative to control. The class given is functional. In general terms: Xenograft models place foreign cells or tissue in a host animal.

Values joined by “and” are separate entries in the source; they are usually repeats but may differ in a detail not shown here. Identical values can stand only once.

Turning to `CC(=O)SCC(=O)c1ccc(NS(=O)(=O)c2ccc(C)cc2)cc1`, the EC50 in experiment [1] was 100 nM; in experiment [2], 6500 nM. Regarding `CC(=O)SCC(=O)c1ccc(NS(=O)(=O)c2ccc3c(c2)ncn3C)cc1`, the EC50 in experiment [1] is 79 nM and 38 nM; in experiment [2], 1800 nM. As for `CC(=O)SCC(=O)c1ccc(C(=O)Nc2ccc(OC(F)(F)F)cc2)cc1`, the EC50 in experiment [1] was found to be 67100 nM. Consider `COc1ccc(S(=O)(=O)Nc2ccc(C(=O)CSC(C)=O)cc2)cc1OC`, for which the EC50 was 280 nM in experiment [1] and 3200 nM in experiment [2]. For `CC(=O)SCC(=O)c1ccc(NS(=O)(=O)c2ccc3c(c2)NCC3)cc1`, in that order: 47 nM and 3300 nM. For the compound `CC(=O)SCC(=O)c1ccc(NS(=O)(=O)c2ccc3c(c2)N(C(C)=O)CC3)cc1`, the EC50 in experiment [1] stood at 91 nM; in experiment [2], 4600 nM. For `CC(=O)SCC(=O)c1ccc(NS(=O)(=O)c2ccc3c(c2)ncn3C)nc1`, in that order: 240 nM and 4900 nM. For `CC(=O)SCC(=O)c1ccc(NS(=O)(=O)c2ccc3c(c2)CCO3)nc1`, in that order: 95 nM and 6400 nM. For `CC(=O)SCC(=O)c1ccc(NS(=O)(=O)c2ccc3ccccc3c2)cc1`, in that order: 29 nM and 2600 nM. Turning to `CC(=O)SCC(=O)c1ccc(NS(=O)(=O)c2ccc3c(c2)CCN3)cc1`, the values for the EC50 in experiment [1] and in experiment [2] were 160 nM and 1100 nM, respectively. For `CC(=O)SCC(=O)c1ccc(NS(=O)(=O)c2ccc3c(c2)OCO3)nc1`, in that order: 360 nM and 5500 nM. For `CC(=O)SCC(=O)c1ccc(NS(=O)(=O)c2ccc3c(c2)OCO3)cc1`, in that order: 88 nM and 1400 nM. For `CC(=O)SCC(=O)c1ccc(NS(=O)(=O)c2ccccc2)nc1`, in that order: 150 nM and 5300 nM. As to `CC(=O)SCC(=O)c1ccc(NS(=O)(=O)c2ccc3c(c2)CCO3)cc1`, the EC50 is 82 nM in experiment [1] and 3200 nM in experiment [2]. For `CC(=O)SCC(=O)c1ccc(NS(=O)(=O)c2ccc3ccccc3c2)nc1`, in that order: 42 nM and 4900 nM. For `CC(=O)SCC(=O)c1ccc(NS(=O)(=O)c2ccc3cc[nH]c3c2)cc1`, in that order: 44 nM and 600 nM. Take `CC(=O)SCC(=O)c1ccc(N(C)S(=O)(=O)c2ccc(OC(F)(F)F)cc2)cc1`: in experiment [1], the EC50 amounted to 4300 nM.

For `CC(=O)SCC(=O)c1ccc(NS(=O)(=O)c2ccc(Cl)c(Cl)c2)cc1`, in experiment [1], the EC50 worked out at 420 nM.

As for `CC(=O)SCC(=O)c1ccc(NS(=O)(=O)c2cccc(F)c2)cc1`, the EC50 in experiment [1] is 460 nM.

`CC(=O)SCC(=O)c1ccc(NS(=O)(=O)c2ccc(Cl)cc2)cc1`: the EC50 came to 280 nM in experiment [1] and 30800 nM in experiment [2].

Regarding `CC(=O)SCC(=O)c1ccc(NS(=O)(=O)c2cccc(OC(F)(F)F)c2)cc1`, in experiment [1], the EC50 amounted to 790 nM. Turning to `CC(=O)SCC(=O)c1ccc(NS(=O)(=O)c2ccc(OC(F)(F)F)cc2)cc1`, the EC50 in experiment [1] worked out at 200 nM; in experiment [2] it was 8800 nM. For `COc1ccc(S(=O)(=O)Nc2ccc(C(=O)CSC(C)=O)cc2)cc1`, in that order: 50 nM and 500 nM. Regarding `CC(=O)SCC(=O)c1ccc(NS(=O)(=O)c2ccc(C(F)(F)F)cc2)cc1`, the EC50 in experiment [1] worked out at 2100 nM.

In the case of `CC(=O)SCC(=O)c1ccc(S(=O)(=O)Nc2ccc(OC(F)(F)F)cc2)cc1`, the EC50 in experiment [1] was 1000 nM; in experiment [2] it was 16100 nM. In the case of `CC(=O)SCC(=O)c1ccc(NS(=O)(=O)c2ccccc2Cl)cc1`, the EC50 in experiment [1] was 850 nM.

As for `CC(=O)SCC(=O)c1ccc(NS(=O)(=O)c2cccc(Cl)c2)cc1`, the EC50 in experiment [1] amounted to 150 nM. For the compound `CC(=O)SCC(=O)c1ccc(NS(=O)(=O)c2ccc3c(c2)OCCN3C)cc1`, the EC50 worked out at 100 nM in experiment [1] and 2600 nM in experiment [2].

As to `CC(=O)SCC(=O)c1ccc(NS(=O)(=O)c2ccc3[nH]ccc3c2)cc1`, the EC50 in experiment [1] stood at 59 nM; in experiment [2], 1500 nM. Consider `CC(=O)SCC(=O)c1ccc(NS(=O)(=O)c2ccc3c(c2)OCCN3C)nc1`, for which the EC50 in experiment [1] is 150 nM; in experiment [2] it was 9600 nM. Turning to `CC(=O)SCC(=O)c1ccc(NS(=O)(=O)c2ccc3c(c2)OCCO3)cc1`, the concentration for a half-maximal effect (EC50) in experiment [1] is 26 nM; in experiment [2] it was 400 nM. Moreover, the T/C in experiment [3] stood at 87%.

In the case of `CC(=O)SCC(=O)c1ccc(NCc2ccc(OC(F)(F)F)cc2)cc1`, the EC50 in experiment [1] was determined as 1500 nM. On to `CC(=O)SCC(=O)c1ccc(NS(=O)(=O)c2ccccc2)cc1`, for which the EC50 came to 330 nM in experiment [1] and 15400 nM in experiment [2]. For `COc1cccc(S(=O)(=O)Nc2ccc(C(=O)CSC(C)=O)cc2)c1`, in that order: 170 nM and 2600 nM. On to `CC(=O)SCC(=O)c1ccc(NC(=O)Nc2ccc(OC(F)(F)F)cc2)cc1`, for which the EC50 in experiment [1] was 11200 nM. Turning to `CC(=O)SCC(=O)c1ccc(NS(=O)(=O)c2ccc(F)cc2)cc1`, the EC50 in experiment [1] is 950 nM.
